# Measurements taken from US20090221530A1, “Relaxase Modulators and Methods of Using Same” (priority 2005, published 2009).
# Where two headings read alike, the source gives them in different places.
# Tests used:
# F plasmid TraI N300 = target: T1, F plasmid TraI N300 (Escherichia coli, UniProt P14565); assay: Fluorescence kinetic assay of oriT DNA cleavage and crossover by TraI N300; assay type: biochemical, E. coli; conditions: data not shown
# T1 construct: An amino-terminal 300 residue F plasmid TraI construct; made in house; host or cells: E. coli BL21 (DE3)/pLysS or HMS174 (DE3)/pLysS, vector pTYB2
# Protocol: Reaction Buffer: 6.42 mM MgCl2, 20.5% glycerol, 153.9 mM NaCl, and 51.3 mM Tris-HCl pH 7.5. Streptavidin Wash Buffer (Tris buffered saline, TBS/Tween): and 150 mM NaCl, 25 mM Tris-HCl pH 7.5, and 0.05% Tween-20. Stopping Buffer: 1.2% sodium-dodecyl sulfate (SDS), and 300 mM EDTA pH 10. TE Buffer: 1 mM EDTA, and 10 mM Tris-HCl pH 7.4. Fluorescence Buffer: 80% glycerol, 200 mM Tris-HCl pH 8.0. Short-term N300 stock (for storage at −20° C.): 50% Reaction Buffer, 49.8% glycerol, 0.2% long-term protein solution (84.6 nM final N300 concentration). All 5× stocks except Probe stocks were diluted in Reaction Buffer. 5× Enzyme Stock: 8.4 mL short-term N300 stock diluted to 2.02 nM N300. 5× Inhibitor Stocks: imidodiphosphate (pNp) at 0-50 nM in Reaction Buffer. 5× Substrate Stocks: oligonucleotides b29 and PCb31eco diluted to […] each, by 3-fold serial dilutions. 5× Probe Stocks: […] (1.2-fold molar excess) oligonucleotide downF in TE Buffer. All reactions and procedures involving downF were assembled or performed in darkened conditions. Solutions and microtiter plates containing downF were kept in foil-lined containers at all times to prevent photobleaching.
# Two oriT derived oligonucleotides, b29 and PCb31eco, were designed for binding and cleavage by TraI based on past studies (see Oligonucleotides section herein; FIG. 4A). The overall method is modified from those described previously for the study of TraI and R388TrwC (Byrd et al., 2002; Grandoso et al., 2000; Matson and Morton, 1991). Reactions were assembled from 16 μL of 5× Substrate Stock, 16 μL of 5× Inhibitor Stock, and 32 μL of Reaction Buffer. 80 μL reactions were initiated with 16 μL of 5× Enzyme Stock and raised to 37° C. 10 μL samples were removed at eight time points (optimized to define timecourses) and stopped in 10 μL of Stopping Buffer at room temperature. Stopped reactions were placed on a 100° C. heat block for one minute, spiked with 2 μL of 5× Probe Stock while still hot, and incubated at 37° C. for 10 minutes (see Kinetic Assay Formulations for probe handling).
# Samples were diluted to […] with Streptavidin Wash Buffer and transferred to Biobind Assembly streptavidin-coated microtiter plates (Thermo Electron Corporation, Waltham, Mass., U.S.A.) and incubated at 37° C. for 45 minutes. Plates were washed with at least 5-fold excess Streptavidin Wash Buffer (in an inverted position to prevent excess biotinylated species from transferring between wells). Wells were filled with 65 μL of Fluorescence Buffer for optimum 6-FAM™ fluorescence. Plates were read in a FLUOSTAR OPTIMA™ (BMG Labtech, Offenburg, Germany) with a 490 nm excitation and 520 nm emission filters (10 nm bandpass) with the gain optimized for maximum signal. The timecourses thus collected were designated Cleavage Courses. Plates were removed and irradiated with 306 nm ultraviolet radiation for 10 minutes to cleave the PC biotin linker. They were then washed inverted with at least 5-fold excess Streptavidin Wash Buffer, filled with 65 μL of Fluorescence Buffer, and again read as above. These timecourses were designated Cleavage+Crossover Courses (FIG. 4A).
# All timecourses were fitted by nonlinear regression with un-weighted least-squares methods using SIGMAPLOT™ 8.0 (SYSTAT Software, Inc., Point Richmond, Calif., U.S.A.) (also used for graph construction). Timecourses with blanked signals in arbitrary fluorescence units were scaled by curve mean in groups of at least four replicates, culled for outliers, and averaged by time point. On average, one replicate time point was culled from each group of four used. The averaged curves were fitted to a simple, three-parameter exponential decay equation (Equation 1), time versus signal, and converted into units of concentration.
# where t is time in seconds, y0+a is the initial signal, b is a constant that determines the shape of the curve. […]
# F+ or F− cells = assay: 24 hr. MIC bounds (turbid/clear wells); assay type: cell-based, E. coli; conditions: 8x serial dilutions, bounds identical for F+ or F− cells; for 24 hr. MIC bounds, upper: clear wells after 24 hr. incubation; for 24 hr. MIC bounds, lower: turbid wells after 24 hr. incubation
# transconjugants = assay: microbe, parasite or virus in culture; assay type: cell-based, E. coli; conditions: for Selectivities by EC50, Donors: listed as vs. transconjugants relative to donors; for 100 minute EC50 / EC50: vs. transconjugants; for 100 minute EC50: mass concentration; for EC50: read-out: 100 minute EC50
# Excerpt: (§1) A 96-well fluorescence-based assay using oxygen biosensor plates (Becton Dickinson, Franklin Lakes, N.J., U.S.A.) was employed to monitor bacterial cell survival. FIG. 7 schematically illustrates the assay mechanism of action. […] In the absence of viable bacteria, however, no fluorescence emission is detected because the fluorophore is quenched by free oxygen. The assay can further be utilized to measure conjugative DNA transfer.
# (§2) Relaxase-dependent cell survival was examined by placing cultures of F+/TraI+ E. coli cells (with antibiotic resistance, e.g., Ab^r1, on a non-conjugative plasmid) within wells and exposing them to putative inhibitory compounds. […] Negative controls for this assay can be F− (Ab^r2) cells and F+ cells (Ab^r1) containing either no F plasmid relaxase (TraI) gene, or a TraI harboring catalytic tyrosine to phenylalanine mutations; in both cases, these control cells should be resistant to relaxase-dependent cell toxicity. […] Fluorescence can be measured using a PHERASTAR™ fluorescence plate reader (BMG LABTECH, Offenburg, Germany) over 8 hours time.
# F− recipient cells = assay: microbe, parasite or virus in culture; assay type: cell-based, E. coli; conditions: for Selectivities by EC50, Donors: listed as vs. F− recipient cells relative to donors; for Selectivities by EC50, Transconj.: listed as vs. F− recipient cells relative to transconjugants; for 100 minute EC50 / EC50: vs. F− recipient cells; for 100 minute EC50: mass concentration; for EC50: read-out: 100 minute EC50
# Excerpt: as §1, §2
# F+ donor cells = assay: microbe, parasite or virus in culture; assay type: cell-based, E. coli; conditions: for Selectivities by EC50, Transconj.: listed as vs. F+ donor cells relative to transconjugants; for 100 minute EC50 / EC50: vs. F+ donor cells; for 100 minute EC50: mass concentration; for EC50: read-out: 100 minute EC50
# Excerpt: as §1, §2
# T1 sequence (P14565 1-306): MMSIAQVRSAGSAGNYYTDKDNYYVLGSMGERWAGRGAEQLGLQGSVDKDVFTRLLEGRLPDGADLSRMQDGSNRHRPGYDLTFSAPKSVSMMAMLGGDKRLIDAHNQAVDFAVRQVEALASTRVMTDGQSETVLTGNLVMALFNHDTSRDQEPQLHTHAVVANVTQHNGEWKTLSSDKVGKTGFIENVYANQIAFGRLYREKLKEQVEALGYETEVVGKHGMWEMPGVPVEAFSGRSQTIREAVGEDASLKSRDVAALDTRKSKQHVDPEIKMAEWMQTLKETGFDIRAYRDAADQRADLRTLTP
Compound,"24 hr. MIC bounds, upper (F+ or F− cells)","24 hr. MIC bounds, lower (F+ or F− cells)","Selectivities by EC50, Donors (transconjugants; first EC50 block)",100 minute EC50 (transconjugants; first EC50 block),EC50 (transconjugants; first EC50 block),100 minute EC50 (transconjugants; second block),EC50 (transconjugants; second block),"Selectivities by EC50, Donors (F− recipient cells; first EC50 block)","Selectivities by EC50, Transconj. (F− recipient cells; first EC50 block)",100 minute EC50 (F− recipient cells; first EC50 block),EC50 (F− recipient cells; first EC50 block),100 minute EC50 (F− recipient cells; second block),EC50 (F− recipient cells; second block),"Selectivities by EC50, Transconj. (F+ donor cells; first EC50 block)",100 minute EC50 (F+ donor cells; first EC50 block),EC50 (F+ donor cells; first EC50 block),100 minute EC50 (F+ donor cells; second block),EC50 (F+ donor cells; second block),also measured
"O=P(O)(O)OP(=O)(O)O [Pyrophosphate, reference compound]",–,–,–,–,–,–,–,–,–,–,–,–,–,–,–,–,–,–,effect on enzyme activity (F plasmid TraI N300): no effect
O=P(O)(O)CNCP(=O)(O)O [Iminobis(methylphosphonate)],10 mM,1.25 mM,1.2E+02,0.253 µg/mL,1 µM,2000 µg/mL,8000 ± 500 µM,4.8E+05,4.0E+03,1 mg/mL,5 ± 3.3 mM,>2 mg/mL,> 10 mM,8.4E−03,2e-06 mg/mL,0.01 µM,>2 mg/mL,> 10000 µM,–
Methylenediphosphonate,12.5 mM,1.56 mM,1.1E−02,0.017 µg/mL,0.096 ± 0.0123 µM,205 µg/mL,1000 µM,7.8E+01,6.9E+03,0.117 mg/mL,0.667 ± 0.0001 mM,7 mg/mL,41 mM,8.8E+01,0.001 mg/mL,8 µM,4 mg/mL,21000 µM,"Selectivities by EC50, Donors (transconjugants; second block): 5.5E−02; Selectivities by EC50, Donors (F− recipient cells; second block): 1.9E+00; Selectivities by EC50, Transconj. (F− recipient cells; second block): 3.5E+01; Selectivities by EC50, Transconj. (F+ donor cells; second block): 1.8E+01"
